These results are taken from PubChem BioAssay (NCI).

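Method: 48-hour compound exposure of cells in 96-well plates, five concentrations, linear interpolation of endpoints. TGI denotes the concentration required for complete inhibition of growth.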

Among the test systems are IGROV1 ovarian; OVCAR-3 ovarian; SK-MEL-5 melanoma; HCT-15 colon; HL-60(TB) leukemia; MCF7 breast; SN12C renal; SF-295 CNS; HOP-62 NSCLC; NCI-H522 lung.
Assay in all cases: DTP human tumour cell line panel, 48 h

Regarding `Cc1cc(C)c2c(=O)n(CC(O)CN3CCN(CCOCCO)CC3)sc2n1` (stereo not given), the TGI with IGROV1 ovarian is over 100 µM; in the assay with OVCAR-3 ovarian, 41.3 µM; in the assay on SK-MEL-5 melanoma, 34.5 µM; in the assay with HCT-15 colon, over 100 µM; with HL-60(TB) leukemia it was 54.4 µM; in the assay on MCF7 breast, 34.2 µM. For the same compound, the TGI is 37.1 µM in the assay with SN12C renal, over 100 µM in the assay on SF-295 CNS, 70.6 µM with HOP-62 NSCLC and 32.1 µM in the assay on NCI-H522 lung.

Regarding `O=S(=O)(O)c1ccc2c(N=Nc3ccc(N=Nc4ccccc4)cc3)c(O)c(S(=O)(=O)O)cc2c1`, the TGI in the assay with IGROV1 ovarian, in the assay on OVCAR-3 ovarian, in the assay on SK-MEL-5 melanoma, in the assay with HCT-15 colon, in the assay on HL-60(TB) leukemia and in the assay on MCF7 breast was over 100 µM each time. Also, the TGI in the assay on SN12C renal, in the assay with SF-295 CNS, with HOP-62 NSCLC and with NCI-H522 lung was over 100 µM throughout.

`CC1=C[C@@H](C)C[C@]2(C)CC[C@H](O2)[C@]23CC[C@](CO)(C[C@H](O2)[C@@H]2O[C@@](C)(CC2=O)[C@@H](O)[C@H]2CC[C@@]4(CCC[C@@H](O4)[C@H](C)C(=O)O[C@H]4C[C@H]([C@]5(O)OCC[C@H](C)[C@@H]5O)O[C@H]4C=C1)O2)O3`: the total growth inhibition concentration (TGI) is 0.0561 µM in the assay on IGROV1 ovarian; 0.102 µM with OVCAR-3 ovarian; over 10 µM in the assay on SK-MEL-5 melanoma; over 10 µM in the assay on HCT-15 colon; 9.73 µM with HL-60(TB) leukemia; over 10 µM in the assay on MCF7 breast. In addition, the TGI in the assay on SN12C renal was over 10 µM; in the assay with SF-295 CNS it was over 10 µM; in the assay with HOP-62 NSCLC, 0.041 µM; with NCI-H522 lung it was over 2.1 µM.

For the compound `Cc1ccc2nc(-c3ccc(NC(=O)c4ccc(N)cc4)c(S(=O)(=O)O)c3)sc2c1`, the TGI in the assay on IGROV1 ovarian, in the assay with OVCAR-3 ovarian, in the assay on SK-MEL-5 melanoma, in the assay on HCT-15 colon, with HL-60(TB) leukemia and in the assay on MCF7 breast was over 100 µM each time. In addition, the TGI in the assay with SN12C renal, with SF-295 CNS, in the assay on HOP-62 NSCLC and in the assay with NCI-H522 lung was over 100 µM in each case.

Consider `Nc1cc(S(=O)(=O)O)cc2ccc(S(=O)(=O)O)cc12`, for which the concentration for total growth inhibition (TGI) in the assay with IGROV1 ovarian, with OVCAR-3 ovarian, with SK-MEL-5 melanoma, in the assay with HCT-15 colon, in the assay on HL-60(TB) leukemia and in the assay with MCF7 breast was over 100 µM in each case. The concentration for total growth inhibition (TGI) in the assay on SN12C renal, with SF-295 CNS, in the assay with HOP-62 NSCLC and in the assay on NCI-H522 lung was over 100 µM each time.

The TGI is the concentration at which net growth stops. Read a low TGI as more potent growth arrest.
